From patent publication US8318730B2, “Fused hetrocyclic compounds” (Synta Pharmaceuticals Corporation, priority 2003, dated 2012)
pIC50: −log10 of the molar value.

The compounds below were run on IL-12 production (assay: In vitro assay of Example 12: inhibition of IL-12 production in IFNγ/LPS- or IFNγ/SAC-stimulated cells, ELISA). Conditions: Homo sapiens; assay of Example 12; if more than one assay was performed, only the most active IC50 result is reported.
Format: cell-based, human
Excerpt: The biological activities of a compound can be evaluated by a number of cell-based assays. One of such assays can be conducted using cells from human peripheral blood mononuclear cells (PBMC) or human monocytic cell line (THP-1). The cells are stimulated with a combination of human interferon-γ (IFNγ) and lipopolysaccharide or a combination of IFNγ and Staphylococcus aureus Cowan I in the presence of a test compound. The level of inhibition of IL-12 production can be measured by determining the amount of p70 by using a sandwich ELISA assay with anti-human IL-12 antibodies. IC50 of the test compound can then be determined. Specifically, PBMC or THP-1 cells are incubated with the test compound. Cell viability was assessed using the bioreduction of MTS [3-(4,5-dimethylthiazol-2-yl)-5-(3-carboxymethoxyphenyl)-2-(4-sulfophenyl)-2H-tetrazolium] (Promega, Madison, Wis.).
Staphylococcus aureus Cowan I (SAC) is obtained from Calbiochem (La Jolla, Calif.), and lipopolysaccharide (LPS, Serratia marscencens) is obtained from Sigma (St. Louis, Mo.). Human and mouse recombinant IFNγ are purchased from Boehringer Mannheim (Mannheim, Germany) and Pharmingen (San Diego, Calif.), respectively.
Human PBMC are isolated by centrifugation using Ficoll-Paque (Pharmacia Biotech, Uppsala, Sweden) and prepared in RPMI medium supplemented with 10% fetal calf serum (FCS), 100 U/mL penicillin, and 100 μg/mL streptomycin. PBMC are plated in wells of a 96-well plate at a concentration of 5×10^5 cells/well, and primed by adding IFNγ (30 U/mL) for 22 h and stimulated by adding LPS (1 μg/mL), or by adding IFNγ (100 U/mL) and then stimulated by adding SAC (0.01%). A test quinazoline compound is dissolved in DMSO, and added to wells of the 96-well plate. The final DMSO concentration is adjusted to 0.25% in all cultures, including the compound-free control. Human THP-1 cells are plated in wells, primed by adding IFNγ (100 U/mL) for 22 h and stimulated by adding SAC (0.025%) in the presence of different concentrations of the quinazoline compound. Cell-free supernatants are taken 18 h later for measurement of cytokines. Cell viability is assessed using the bioreduction of MTS. Cell survival is estimated by determining the ratio of the absorbance in compound-treated groups versus compound-free control.
The supernatant is assayed for the amount of IL-12p40, IL-12p70, or IL-10 by using a sandwich ELISA with anti-human antibodies, i.e., a Human IL-12 p40 ELISA kit from R&D Systems (Berkeley, Calif.), and a Human IL-12 p70 or IL-10 ELISA kit from Endogen (Cambridge, Mass.). Assays are based on the manufacturer's instructions.
The biological activities of quinazoline compounds are tested on human PBMC or THP-1 cells.

| SMILES | pIC50 |
| --- | --- |
| COc1ccc(CCOc2nc(N3CCOCC3)c3cc(-c4ccccc4)ccc3n2)cc1OC [Compound 19, 2-[2-(3,4-Dimethoxy-phenyl)-ethoxy]-4-morpholin-4-yl-6-phenyl-quinazoline] | 5.16 |
| Cc1ccccc1Oc1cnc2nc(OCCN3CCOCC3)nc(N3CCOCC3)c2c1 [Compound 46, 4-Morpholin-4-yl-2-(2-morpholin-4-yl-ethoxy)-6-o-tolyloxy-pyrido[2,3-d]pyrimidine] | < 6.00 |
| Cc1cccc(-c2ccc3nc(OCCO)nc(N4CCOCC4)c3c2)c1 [Compound 18, 2-(4-Morpholin-4-yl-6-m-tolyl-quinazolin-2-yloxy)-ethanol] | 6.79 |
| Cc1cccc(-c2cnc3nc(OCCN4CCOCC4)nc(N4CCOCC4)c3c2)c1 [Compound 42, 4-Morpholin-4-yl-2-(2-morpholin-4-yl-ethoxy)-6-m-tolyl-pyrido[2,3-d]pyrimidine] | < 5.00 |
| COc1ccc(CCOc2nc(N3CCOCC3)c3cc(-c4ccc(F)cc4)ccc3n2)cc1OC [Compound 33, 6-(4-Fluoro-phenyl)-2-[2-(3,4-dimethoxy-phenyl)-ethoxy]-4-morpholin-4-yl-quinazoline] | < 5.00 |
| COc1ccc(CCOc2nc(N3CCOCC3)c3cc(-c4cccc(C(F)(F)F)c4)ccc3n2)cc1OC [Compound 20, 2-[2-(3,4-Dimethoxy-phenyl)-ethoxy]-4-morpholin-4-yl-6-(3-trifluoromethyl-phenyl)-quinazoline] | 6.97 |
| Cc1cccc(-c2ccc3nc(OCCc4ccccn4)nc(N4CCOCC4)c3c2)c1 [Compound 16, 4-Morpholin-4-yl-2-(2-pyridin-2-yl-ethoxy)-6-m-tolyl-quinazoline] | 7.07 |
| COc1ccc(CCOc2nc(N3CCOCC3)c3cc(-c4ccc(C(F)(F)F)cc4)ccc3n2)cc1OC [Compound 32, 2-[2-(3,4-Dimethoxy-phenyl)-ethoxy]-4-morpholin-4-yl-6-(4-trifluoromethyl-phenyl)-quinazoline] | 5.52 |
| COc1ccc(CCOc2nc(N3CCOCC3)c3cc(Oc4ccccc4Cl)ccc3n2)cc1OC [Compound 34, 6-(2-Chloro-phenoxy)-2-[2-(3,4-dimethoxy-phenyl)-ethoxy]-4-morpholin-4-yl-quinazoline] | 6.46 |
| COc1ccc(CCOc2nc(N3CCOCC3)c3cc(-c4cccc(C#N)c4)ccc3n2)cc1OC [Compound 23, 3-{2-[2-(3,4-Dimethoxy-phenyl)-ethoxy]-4-morpholin-4-yl-quinazolin-6-yl}-benzonitrile] | < 5.00 |
| COc1ccc(CCOc2nc(N3CCOCC3)c3cc(-c4cc(C)cc(C)c4)ccc3n2)cc1OC [Compound 27, 2-[2-(3,4-Dimethoxy-phenyl)-ethoxy]-6-(3,5-dimethyl-phenyl)-4-morpholin-4-yl-quinazoline] | 6.33 |
| COc1ccc(CCOc2nc(N3CCOCC3)c3cc(-c4ccc(C)c(C)c4)ccc3n2)cc1OC [Compound 26, 2-[2-(3,4-Dimethoxy-phenyl)-ethoxy]-6-(3,4-dimethyl-phenyl)-4-morpholin-4-yl-quinazoline] | 6.97 |
| COc1ccc(CCOc2nc(N3CCOCC3)c3cc(-c4cccc(C(N)=O)c4)ccc3n2)cc1OC [Compound 24, 3-{2-[2-(3,4-Dimethoxy-phenyl)-ethoxy]-4-morpholin-4-yl-quinazolin-6-yl}-benzamide] | 5.85 |
| COc1ccc(CCOc2nc(N3CCOCC3)c3cc(Oc4ccc(C)cc4)ccc3n2)cc1OC [Compound 36, 2-[2-(3,4-Dimethoxy-phenyl)-ethoxy]-4-morpholin-4-yl-6-p-tolyloxy-quinazoline] | 5.59 |
| COc1ccc(CCOc2nc(N3CCOCC3)c3cc(-c4ccc(C)cc4)ccc3n2)cc1OC [Compound 21, 2-[2-(3,4-Dimethoxy-phenyl)-ethoxy]-4-morpholin-4-yl-6-p-tolyl-quinazoline] | 7.23 |
| COc1ccc(CCOc2nc(N3CCOCC3)c3cc(Nc4ccccc4C)ccc3n2)cc1OC [Compound 41, {2-[2-(3,4-Dimethoxy-phenyl)-ethoxy]-4-morpholin-4-yl-quinazolin-6-yl}-o-tolyl-amine] | < 5.00 |
| c1ccc(Oc2cnc3nc(OCCN4CCOCC4)nc(N4CCOCC4)c3c2)cc1 [Compound 48, 4-Morpholin-4-yl-2-(2-morpholin-4-yl-ethoxy)-6-phenoxy-pyrido[2,3-d]pyrimidine] | < 6.00 |
| c1ccc2oc(-c3cnc4nc(OCCN5CCOCC5)nc(N5CCOCC5)c4c3)cc2c1 [Compound 45, 6-Benzofuran-2-yl-4-morpholin-4-yl-2-(2-morpholin-4-yl-ethoxy)-pyrido[2,3-d]pyrimidine] | 6.11 |
| COc1ccc(CCOc2nc(N3CCOCC3)c3cc(-c4ccc(C)s4)ccc3n2)cc1OC [Compound 22, 2-[2-(3,4-Dimethoxy-phenyl)-ethoxy]-6-(5-methyl-thiophen-2-yl)-4-morpholin-4-yl-quinazoline] | 5.52 |
| COc1ccc(CCOc2nc(N3CCOCC3)c3cc(Oc4cccc(Cl)c4)ccc3n2)cc1OC [Compound 35, 6-(3-Chloro-phenoxy)-2-[2-(3,4-dimethoxy-phenyl)-ethoxy]-4-morpholin-4-yl-quinazoline] | 5.00 |
| COc1cccc(-c2ccc3nc(OCCc4ccc(OC)c(OC)c4)nc(N4CCOCC4)c3c2)c1 [Compound 25, 2-[2-(3,4-Dimethoxy-phenyl)-ethoxy]-6-(3-methoxy-phenyl)-4-morpholin-4-yl-quinazoline] | 6.40 |
| COCCOc1nc(N2CCOCC2)c2cc(-c3cccc(C)c3)ccc2n1 [Compound 13, 2-(2-Methoxy-ethoxy)-4-morpholin-4-yl-6-m-tolyl-quinazoline] | 5.74 |
| Cc1ccc(-c2ccc3nc(OCCN4CCOCC4)nc(N4CCOCC4)c3c2)cc1 [Compound 37, 4-Morpholin-4-yl-2-(2-morpholin-4-yl-ethoxy)-6-p-tolyl-quinazoline] | 5.60 |
| Fc1ccc(-c2ccc3nc(OCCN4CCOCC4)nc(N4CCOCC4)c3c2)cc1 [Compound 38, 6-(4-Fluoro-phenyl)-4-morpholin-4-yl-2-(2-morpholin-4-yl-ethoxy)-quinazoline] | < 5.00 |
| COc1ccc(-c2ccc3nc(OCCc4ccc(OC)c(OC)c4)nc(N4CCOCC4)c3c2)cc1 [Compound 31, 2-[2-(3,4-Dimethoxy-phenyl)-ethoxy]-6-(4-methoxy-phenyl)-4-morpholin-4-yl-quinazoline] | 6.38 |
| COc1ccc(CCOc2nc(N3CCOCC3)c3cc(Nc4ccc(C)cc4)ccc3n2)cc1OC [Compound 40, {2-[2-(3,4-Dimethoxy-phenyl)-ethoxy]-4-morpholin-4-yl-quinazolin-6-yl}-p-tolyl-amine] | < 5.00 |
| Cc1ccc(Oc2cnc3nc(OCCN4CCOCC4)nc(N4CCOCC4)c3c2)cc1 [Compound 47, 4-Morpholin-4-yl-2-(2-morpholin-4-yl-ethoxy)-6-p-tolyloxy-pyrido[2,3-d]pyrimidine] | < 6.00 |

Same assay, conditions: Homo sapiens; in an assay according to Example 12

| SMILES | pIC50 |
| --- | --- |
| Cc1cccc(-c2cc(O)c3cc(OCCN4CCOCC4)cc(N4CCOCC4)c3n2)c1 [Compound 49, 8-Morpholin-4-yl-6-(2-morpholin-4-yl-ethoxy)-2-m-tolyl-quinolin-4-ol] | 5.27 |

Same assay, conditions: measured in an assay according to Example 12; human PBMC or THP-1 cells

| SMILES | pIC50 |
| --- | --- |
| COc1cc2nc(N3CCOCC3)nc(NN=Cc3cccc(C)c3)c2cc1OC [Compound 1, N-(6,7-Dimethoxy-2-morpholin-4-yl-quinazolin-4-yl)-N′-(3-methyl-benzylidene)-hydrazine] | 7.01 |
| COc1cc2nc(N3CCOCC3)nc(NC(=O)Nc3cccc(C)c3)c2cc1OC [Compound 6, 1-(6,7-dimethoxy-2-morpholin-4-yl-quinazolin-4-yl)-3-m-tolyl-urea] | 7.22 |
| COc1cc2nc(N3CCOCC3)nc(N/N=C/c3cccc(C)c3)c2cc1OCCOc1ccccc1 [Compound 9, N-[7-Methoxy-2-morpholin-4-yl-6-(2-phenoxy-ethoxy)-quinazolin-4-yl]-N′-(3-methyl-benzylidene)-hydrazine] | 6.10 |
| COc1cc2nc(N3CCOCC3)nc(Nc3ccc4[nH]c(C)c(C)c4c3)c2cc1OC [Compound 2, (6,7-Dimethoxy-2-morpholin-4-yl-quinazolin-4-yl)-(2,3-dimethyl-1H-indol-5-yl)-amine] | 6.96 |
| Cc1[nH]c2ccc(Nc3nc(N4CCOCC4)nc4ccc([N+](=O)[O-])cc34)cc2c1C [Compound 10, (2,3-Dimethyl-1H-indol-5-yl)-(2-morpholin-4-yl-6-nitro-quinazolin-4-yl)-amine] | 5.30 |
